Measurements taken from patent US20260216141A1, “NECROSIS INHIBITOR” (LINKGEVITY LIMITED, priority 2023, published 2026).
Entries after “also recorded” stand apart in the source; their conditions may differ.

Columns and labels:
S. pombi = S. pombi oxidative stress, Propidium iodide staining; format: cell-based; conditions: EGTA 2500 μM during stress; 50 min 1 mM H2O2
Procedure: A culture of S. pombi was exposed to 1 mM hydrogen peroxide for 50 min. Following this the yeast cells were washed in buffer and stained with the dye Propidium iodide (PI) and placed on a microscope slide under a coverslip and imaged using Nomarski and epifluorescence microscopy to identify the percentage of yeast cells that underwent necrosis. Treatment is EGTA 2500 μM during stress. Two repeats were performed.
Bacteria, E. coli, and yeast, S. pombi, were exposed to toxin hydrogen peroxide stress (stress is for 50 min 1 mM H2O2) with or without high doses (2500 μM; c.f. FIG. 2) of the chelating agent EGTA (inhibitor of the predicted weak spot of loss of calcium ion homeostasis in the cytosol) delivered during the stress.
For yeast, cells were stained with the standard viability dye Propidium iodide (PI) that only enters necrotic cells, placed on a microscope slide under a coverslip, and imaged using Nomarski and epifluorescence microscopy to identify the percentage of cells that undergo necrosis (all cells present could be counted using Nomarski microscopy).

Hepg2s spheroids = format: cell-based
Procedure: Media changes were on alternative days. […] DMSO controls were added on each plate.
In some of the following Examples, human 3D cell culture was employed using liver Hepg2 cells. 3D cell culture is known to accurately replicate a cell's native environment. During embryonic development, cells aggregate and self-assemble into complex multi-cellular structures. The same aggregation process can likewise occur in in vitro culture systems if cell-cell cohesion is favoured over cell attachment to a substrate. The resulting 3D cell culture aggregates are known as spheroids. […] A standard method of spheroid formation in U-bottom low adhesion plates was used in the Examples herein.
This is because, as the spheroids grow, only the peripheral cells obtain oxygen and nutrients from the cell culture medium. The inner cells die from cell death necrosis, with the formation of large necrotic cores (observable though use of standard live dead stains). Thus, necrotic core formation represents a naturally occurring hypoxic and nutrient stress. This resembles multiple forms of shock in humans where blood flow carrying nutrients and oxygen is disrupted to certain cells, tissues and/or organs.

C. elegans = C. elegans survival after cold, heat, oxidative and toxin stress; format: in vivo, Caenorhabditis elegans; conditions: EGTA 2500 μM in liposomes, 3 hrs prior to stress or 3 hrs post stress
Procedure: C. elegans was maintained on nematode growth medium (NGM) agar plates seeded with Escherichia coli OP50, using standard culture methodologies (S. Brenner, 1974). A C. elegans (N2H) hermaphrodite stock was used as wild-type. Day 1 hermaphrodites were used in experiments and all maintenance and trials were conducted at 20° C. unless otherwise stated.
Per trial, 100 animals were placed in 1.5 ml Eppendorf tubes ([…]) containing 100 μl M9 buffer, and then transferred to a −80° C. incubator for 1.5 min. Following the stress, animals were transferred to a 20° C. incubator and maintained as usual on OP50 NGM plates. • Heat stress
Per trial, 100 animals were placed in a 37° C. incubator for 4.5 hrs on NGM plates. Following the stress, animals were transferred to a 20° C. incubator and maintained as usual on OP50 NGM plates. • Oxidative stress
Per trial, 100 animals were transferred into 1.5 ml Eppendorf tubes (20 animals per tube) containing 300 μL of 2M hydrogen peroxide for 5 min. Following the stress, animals were transferred to a 20° C. incubator and maintained as usual on OP50 NGM plates. • Toxin stress
Per trial, 100 animals were transferred into 1.5 ml Eppendorf tubes (20 animals per tube) containing 300 μL of 1.3% (v/v) tert-butylhydroperoxide (tBOOH) for 5 min. […]
Next the model Caenorhabditis elegans was used and animal survival following stress was scored. […]

[1] = tested on: Zebra fish (Danio rerio) liver; experiment: Zebra fish liver oxidative stress, PI/DAPI staining; format: cell-based; conditions: 2500 μM EGTA during stress, 7 min in 1 mM H2O2
Procedure: Freshly culled zebrafish (Danio rerio) was dissected to quickly remove the liver which was then placed in PBS buffer and immediately stressed with 1 mM hydrogen peroxide for 7 min in with or without 2500 μM EGTA. The liver was then washed in PBS to stop the stress and stained with PI as well as DAPI to visualise all cell nuclei (including intact cell nuclei). The liver was then placed on a microscope slide under a coverslip and imaged.
Moving to more complex animals, the intact liver from freshly culled and dissected zebrafish (Danio rerio) was placed in PBS buffer and immediately stressed with the toxin hydrogen peroxide with or without EGTA. The liver was then washed in PBS and stained with PI as well as DAPI to visualise all cell nuclei (including intact cell nuclei). The liver was then placed on a microscope slide under a coverslip and imaged, and the percentage of PI-stained cells scored (relative to all cells seen in the image, i.e., DAPI stained).

[2] = tested on: HEK293 suspension culture; experiment: HEK293 suspension culture oxidative stress, PI/DAPI staining; format: cell-based, human; conditions: 2500 μM EGTA 2 hrs prior and during stress, 20 sec 1M H2O2
Procedure: HEK293 cells were detached using trypsin, washed and placed in cell culture medium. Cells were pre-treated for 2 hrs before and during stress with or without (control) EGTA 2500 μM. Cells were stressed by placing them in a 1M hydrogen peroxide solution (in cell culture medium) for 20 sec. Cells were then washed in cell culture medium and stained with PI as well as DAPI to visualise all cell nuclei (including intact cell nuclei), and placed on a microscope slide under a coverslip and imaged.
For HEK293 suspension culture, cells were treated with a high dosage of EGTA 2 hrs prior to stress as well as during the stress. Stress was exposure to 1M hydrogen peroxide alongside untreated controls. Cells were then stained with DAPI and PI and Normarski and epifluoresence imaging was performed.

Structure (SMILES): O=C(O)CN(CCOCCOCCN(CC(=O)O)CC(=O)O)CC(=O)O [EGTA, ethylene glycol-bis(β-aminoethyl ether)-N,N,N′,N′-tetraacetic acid]
- S. pombi death / % of necrotic (PI stained) cells following oxidative stress (S. pombi): death is prevented
- dosage needed to suppress necrosis (Hepg2s spheroids; Hepg2s spheroids, day 7): 2500 µM
- toxicity at earlier time points (Hepg2s spheroids; time points earlier than day 7): some mild, but not statistically significant, toxicity
- C. elegans death / survival following stress (C. elegans): death is prevented
- % of necrotic cells (PI stain) relative to all cells (DAPI stain) [1]: necrosis cell death is prevented; also recorded: reduction in the percentage of necrotic (PI stained) cells
- % of necrotic cells (PI stain) relative to all cells (DAPI stain) [2]: necrosis cell death is prevented; also recorded: significantly reduced
